Measurements taken from patent US20070009571A1, “Novel haptotactic peptides” (Hadasit Medical Research Services & Development Ltd., priority 1998, published 2007).
Entries after “also recorded” stand apart in the source; their conditions may differ. No end group written: not given here.

Assays:
[1] = system: normal human skin fibroblasts (HF); assay: Haptotaxis assay: attachment of ligand-coated sepharose beads (SB) to cultured cells; format: cell-based; settings: for % Binding of peptide-coated SB to normal cultured cells: percentage of SB-ligand attached to cells by day 4
Procedure: (§1) Peptides or fibrinogen were covalently bound to CNBr activated sepharose beads (SB) (Pharmacia, Piscataway, N.J.) using techniques previously used to bind albumin, fibrinogen and thrombin. Briefly, CNBr-activated sepharose 4B (Pharmacia) was washed with 1N HCl, and suspended in the coupling buffer (pH 8.3), following the protocol supplied by the manufacturer. The peptides were dialyzed against the coupling buffer to remove Tris. Peptides (1 mg) were not highly water soluble. The peptides were dissolved in 1 mL 70% ethanol or dimethylformamide, and were then mixed into the coupling buffer containing 1 mL CNBr-activated sepharose. The suspension was gently agitated overnight, then centrifuged 500×g to pack the beads. This procedure covalently binds more than 95% of proteins or peptides including fibrinogen or peptides-CαE (SEQ ID NO:3), Cβ (SEQ ID NO:1) and preCγ (SEQ ID NO:2) to the beads determined by Abs280 readings of the solutions.
(§2) The migratory/adhesion response of cells to proteins (such as fibrinogen) or peptides covalently bound to SB was measured as follows. Cells were grown in 6 or 12 well plates to near confluence or in suspension until they covered about ½ to ⅔ of the plate surface. At that point, about […] of a suspension containing 50% v/v SB coated with the test protein or peptide were added to the plate and dispersed by gentle shaking for 1 min. The plate was then returned to the incubator and examined at different times by inverted phase microscopy.
(§3) The SB (naked or ligand bound) sedimented onto the nearly confluent cell layer and occasionally made physical contact with cell membranes on the plate (ascribed to Brownian motion or micro-convection currents). […] Typically, 300 beads (but not less then 200) were counted in each well and the ratio of SB bound to the cells relative to total number SB could be calculated (SB bound/SB total). Counting the percentage of SB attached to the cell surface at different time intervals provided a quantitative assay of the kinetics of the attachment of coated beads to cells. Negative control with uncoated SB or positive controls with SB-fibrinogen were employed with at least 3 wells measured for each. The statistical error was calculated from the square root of the total counts.
(§4) The peptides of the present invention were synthesized and tested in cell culture systems as described above. Essentially, peptides were covalently attached to sepharose beads to form SB-Cα (SEQ ID NO:4), SB-Cβ (SEQ ID NO:1), SB-PreCγ (SEQ ID NO:2), SB-Cγ (SEQ ID NO:5) and SB-CαE (SEQ ID NO:3), respectively, as was fibrinogen to form SB-Fib. The SB-peptide combination was then incubated with cultured cells. […] The haptotactic potency of the peptides is summarized in Table 3 with the percentage of SB-Fib/peptide attached to cells (by day 4) given in columns 2-5 of Table 3.

[2] = system: bovine aortic endothelial cells (EC, BAEC); assay: Haptotaxis assay: attachment of ligand-coated SB to cultured cells; format: cell-based; settings: for % Binding of peptide-coated SB to normal cultured cells: percentage of SB-ligand attached to cells by day 4
Procedure: as §1, §2, §3, §4

[3] = system: human ovarian carcinoma cells (OV-1063); assay: as above; format: cell-based; settings: percentage of SB-ligand attached to cells by day 4
Procedure: as §1, §2, §3, §4

[4] = system: murine mammary adenocarcinoma cells (EMT-6); assay: as above; format: cell-based; settings: for % Binding of peptide-coated SB to normal cultured cells: percentage of SB-ligand attached to cells by day 4
Procedure: as §1, §2, §3, §4

[5] = system: normal human keratinocytes; assay: as above; format: cell-based; settings: Keratinocyte; percentage of SB-ligand attached to cells by day 4
Procedure: as §1, §2, §3, §4

[6] = system: normal murine fibroblasts (MF); assay: as above; format: cell-based; settings: for % Binding of peptide-coated SB to normal cultured cells: percentage of SB-ligand attached to cells by day 4
Procedure: as §1, §2, §3, §4

[7] = system: porcine smooth muscle cells (SMC); assay: as above; format: cell-based; settings: for % Binding of peptide-coated SB to normal cultured cells: percentage of SB-ligand attached to cells by day 4
Procedure: as §1, §2, §3, §4

tested cell lines = assay: Haptotaxis assay, statements over the tested cell lines; format: cell-based; settings: ligands covalently bound to SB; for haptotactic response / cell binding to SB-ligand, in words: near confluent cell cultures
Procedure: as §1, §2, §3, §4

HF [8] = assay: Cell proliferation, MTS assay; format: cell-based, human; settings: 0.4 nM-4 μM, 96 well plates
Procedure: Cell proliferation was evaluated by measuring cell density as a function of time by two different colorimetric assays. The MTS colorimetric assay (CellTitre 96 Aqueous Assay by Promega) is based on dehydrogenase conversion of MTS (methyl tetrazolium salt) by viable cells to […] (Ge M. Tang, G., Ryan. T. J. and Malik. A. B., “Fibrinogen degradation product fragment D induces endothelial cell detachment by activation of cell-mediated fibrinolysis”, J. Clin. Inves., 90:2508-2516 (1992)); the methylene blue (MB) assay is based on the staining of monolayer cells after their fixation, and reading the absorbence of the absorbed dye.
The MTS assay for viable cells was performed as follows: 30 μL of freshly prepared MTS/PMS were added to each well; following 2 hrs incubation at 37° C., the plates were placed on a computer driven microplate reader (Anthos HT-II, Salzburg, Austria), programmed to shake the plate for 1 minute before reading the optical density (OD) of the dye at 490 nm. The measurements were repeated following 4 and 6 hours of incubation.
Peptides (Cα (SEQ ID NO:4), […], PreCγ (SEQ ID NO:2) and CαE (SEQ ID NO:3)), up to 1 μg/mL or 100 μg/mL fibrinogen or thrombin (final concentrations) were added to the culture medium and cell numbers were assayed by day 3 using the MTS assay. The change in cell number was compared with that observed versus saline control. Of the 5 peptides tested at dosages up to 10 μg/mL (approximately equimolar to 1 μg/mL fibrinogen), none of the peptides exerted significant effect on cell proliferation (FIG. 7).

EC cells (BAEC) = assay: FACS analysis of binding of FITC-labeled peptides; format: cell-based, bovine; settings: 10 μg/ml or 100 μg/ml, medium with 0.1% albumin
Procedure: (§5) EC and HF cell monolayers were washed and then incubated with trypsin-versene. Cells were then washed with growth medium and resuspended in medium with 0.1% albumin. FITC-labeled peptide-Cβ (SEQ ID NO:1) was incubated with 5×10^5 EC cells (10 μg/ml or 100 μg/ml) or with 2.5×10^5 HF cells (100 μg/ml) in medium with 0.1% albumin. FITC-labeled peptide-CαE (SEQ ID NO:3) and Cα (SEQ ID NO:4) (10 μg/ml) was incubated with 5×10^5 EC cells in medium with 0.1% albumin. Cells were then washed with PBS and 1% albumin. Cells were resuspended in PBS and 1% albumin and then filtered through a mesh for FACS analysis, in which the FITC tluorescence was measured for each cell.
(§6) The control is without FITC-labeled peptide (background fluorescence).
(§7) In competition experiments, cells were incubated with various concentrations of unlabeled Cβ (SEQ ID NO:1) for 15 mins, an aliquot of Cβ^FITC (4 mM) was added and the sample was subjected to FACS analysis. […] The Cβ^FITC (SEQ ID NO:1) uptake experiments best fitted a linear-quadratic curve-fit.

HF cells = assay: FACS analysis of binding of FITC-labeled peptides; format: cell-based, human; settings: 100 μg/ml, medium with 0.1% albumin
Procedure: as §5, §6, §7

cells such as HF or BAEC = assay: FACS competition and uptake experiments with Cβ-FITC; format: cell-based; parameters: dose or concentration left out as unconfirmed; settings: preincubation with unlabeled Cβ for 15 mins
Procedure: as §7

BAEC = assay: Chemotaxis, micro-Boyden chamber assay; format: cell-based, bovine; settings: up to 40 μg/ml
Procedure: (§8) Chemotaxis was evaluated using 48-well plastic Microtaxis micro-Boyden chambers. Polycarbonate filters with pore size of 8 μm were coated with fibronectin for 2 hours at 37° C. Conditioned medium from 3T3 cells served as a positive control. Test solution (26 μl) containing the tested peptides or protein or medium with no additions that served as control were placed in the lower chamber, covered with the filter. 50 μl cell suspension was introduced to the upper chamber of each well. The number of cells/well varied in the range of 5,000-10,000 in different experiments. The device loaded with cells was incubated at 37° C. for 4-5 hours. The filter was then removed and the non-migrating cells on its upper part were carefully wiped off with a damp cotton swab. The filter was fixed in methanol and stained with Accustain (modified Wright stain solution Sigma Diagnostics: St. Lois, Mo.). Cells that crossed or were retained within the filter were counted microscopically at low magnification so that the viewing field corresponded to the whole area of each well. Each experimental variant was performed in duplicated or triplicates and the data from, three successful experiments were normalized to the values of the positive control and averaged.
The chemotactic response of BAEC to a soluble gradient of […], the most haptotactic of the peptides studied was as follows. The results can be seen in FIG. 6. […] A similar, though more moderate, chemotaxis response to Cβ (SEQ ID NO:1) was obtained with HF.

HF [9] = assay: Chemotaxis, micro-Boyden chamber assay; format: cell-based, human; settings: compared with BAEC
Procedure: as §8
The chemotactic response of BAEC to a soluble gradient of Cα (SEQ ID NO:1), the most haptotactic of the peptides studied was as follows. […]

Substance	% Binding of peptide-coated SB to normal cultured cells [1] [%]	cell binding / haptotactic response to SB-ligand, in words [2]	% Binding of peptide-coated SB to normal cultured cells [2] [%]	% Binding of peptide-coated SB to normal cultured cells [3] [%]	% Binding of peptide-coated SB to normal cultured cells [4] [%]	% Binding of peptide-coated SB to normal cultured cells [5] [%]	% Binding of peptide-coated SB to normal cultured cells [6] [%]	% Binding of peptide-coated SB to normal cultured cells [7] [%]	cell lines excepted from binding to SB-ligand (all other tested lines bound) (tested cell lines)	number of cell lines bound by SB-ligand out of 7 tested (tested cell lines)	haptotactic response / cell binding to SB-ligand, in words (tested cell lines)	further results
SB-CαE: peptide-CαE (SEQ ID NO:3) covalently attached to sepharose beads (RGADYSLRAVRMKIRPLVTQ; also: attached to sepharose beads)	52	strong binding	43	0	64	0	61	8	with the exception of OV-1063, keratinocytes and cells derived from a leucocytic lineage	5	next most potent	cell binding to SB-ligand, in words [1]: strong binding; cell binding to SB-ligand, in words [4]: strong binding; cell binding to SB-ligand, in words [6]: strong binding; cell binding to SB-ligand, in words [7]: Weak attachment
SB-Cβ: peptide-Cβ (SEQ ID NO:1) covalently attached to sepharose beads (KGSWYSMRKMSMKIRPFFPQQ; also: attached to sepharose beads)	100		94	4	99	0	89	100	with the exception of OV-1063, keratinocytes and cells derived from a leucocytic lineage	5	most potent	
KGSWYSMRKMSMKIRPFFPQQ (Equivalent to the c-terminus of fibrinogen beta-chain) [Cβ, haptotactic peptide homologous to the carboxy terminus of the fibrinogen β chain, β 441-461]		greatest haptotactic response									highly haptotactic; also recorded: significant haptotactic responses	proliferative response of HF (MTS proliferation assay) (HF [8]): none of these peptides stimulated or inhibited proliferation; binding/uptake of FITC-labeled peptide by FACS, in words (EC cells (BAEC)): higher than that of CαE; also recorded: clearly bound to cells; binding/uptake of FITC-labeled peptide by FACS, in words (HF cells): higher than that of CαE; effect of unlabeled peptide on uptake of Cβ-FITC (competition) (cells such as HF or BAEC): increased the level of total Cβ; chemotactic response relative to negative control of 1% BSA serum-free medium (BAEC; BAEC): 3 times; chemotactic response of BAEC, in words (BAEC; soluble gradient, conditioned medium = 100% chemotaxis): highly significant chemotaxis; chemotaxis response of HF, in words (HF [9]): more moderate
SB-Cα: peptide-Cα (SEQ ID NO:4) covalently attached to sepharose beads (EADHEGTHSTKRGHAKSRP; also: attached to sepharose beads) [reference compound]	0		0	0	1	0	0	0		none	No cell binding	
